Experimental data: article PMC7314595 (Angewandte Chemie (International ed. in English), 2016)
“Also recorded” adds a separate entry of the source.

Key:
tandem BRD4 bromodomains = tandem BRD4 bromodomains (Homo sapiens, UniProt O60885); test: BRD4 tandem isothermal titration calorimetry; format: binding
ATAD2B bromodomain = target: T1, ATAD2B bromodomain (Homo sapiens, UniProt Q9ULI0); test: ATAD2B TR-FRET; format: binding
T1 sequence (Q9ULI0 951-1066 limits assumed): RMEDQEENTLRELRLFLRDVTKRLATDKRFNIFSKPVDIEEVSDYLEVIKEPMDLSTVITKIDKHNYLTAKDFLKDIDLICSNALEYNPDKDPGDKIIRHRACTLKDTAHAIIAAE

Chrom logD = format: physicochemical; conditions: pH 7.4
[1] = system: genes involved in cell cycle and division; test: Expression of genes involved in cell cycle and division; format: cell-based
BRD2 BD1 = BRD2 BD1 (Homo sapiens, UniProt P25440); test: BRD2 BD1 TR-FRET; format: binding
[2] = target: T2, full-length ATAD2 / histone H3.3 (Homo sapiens, UniProt Q6PL18); test: Cellular NanoBRET displacement, full-length ATAD2 from histone H3.3; format: cell-based
T2 sequence (Q6PL18 1-1390): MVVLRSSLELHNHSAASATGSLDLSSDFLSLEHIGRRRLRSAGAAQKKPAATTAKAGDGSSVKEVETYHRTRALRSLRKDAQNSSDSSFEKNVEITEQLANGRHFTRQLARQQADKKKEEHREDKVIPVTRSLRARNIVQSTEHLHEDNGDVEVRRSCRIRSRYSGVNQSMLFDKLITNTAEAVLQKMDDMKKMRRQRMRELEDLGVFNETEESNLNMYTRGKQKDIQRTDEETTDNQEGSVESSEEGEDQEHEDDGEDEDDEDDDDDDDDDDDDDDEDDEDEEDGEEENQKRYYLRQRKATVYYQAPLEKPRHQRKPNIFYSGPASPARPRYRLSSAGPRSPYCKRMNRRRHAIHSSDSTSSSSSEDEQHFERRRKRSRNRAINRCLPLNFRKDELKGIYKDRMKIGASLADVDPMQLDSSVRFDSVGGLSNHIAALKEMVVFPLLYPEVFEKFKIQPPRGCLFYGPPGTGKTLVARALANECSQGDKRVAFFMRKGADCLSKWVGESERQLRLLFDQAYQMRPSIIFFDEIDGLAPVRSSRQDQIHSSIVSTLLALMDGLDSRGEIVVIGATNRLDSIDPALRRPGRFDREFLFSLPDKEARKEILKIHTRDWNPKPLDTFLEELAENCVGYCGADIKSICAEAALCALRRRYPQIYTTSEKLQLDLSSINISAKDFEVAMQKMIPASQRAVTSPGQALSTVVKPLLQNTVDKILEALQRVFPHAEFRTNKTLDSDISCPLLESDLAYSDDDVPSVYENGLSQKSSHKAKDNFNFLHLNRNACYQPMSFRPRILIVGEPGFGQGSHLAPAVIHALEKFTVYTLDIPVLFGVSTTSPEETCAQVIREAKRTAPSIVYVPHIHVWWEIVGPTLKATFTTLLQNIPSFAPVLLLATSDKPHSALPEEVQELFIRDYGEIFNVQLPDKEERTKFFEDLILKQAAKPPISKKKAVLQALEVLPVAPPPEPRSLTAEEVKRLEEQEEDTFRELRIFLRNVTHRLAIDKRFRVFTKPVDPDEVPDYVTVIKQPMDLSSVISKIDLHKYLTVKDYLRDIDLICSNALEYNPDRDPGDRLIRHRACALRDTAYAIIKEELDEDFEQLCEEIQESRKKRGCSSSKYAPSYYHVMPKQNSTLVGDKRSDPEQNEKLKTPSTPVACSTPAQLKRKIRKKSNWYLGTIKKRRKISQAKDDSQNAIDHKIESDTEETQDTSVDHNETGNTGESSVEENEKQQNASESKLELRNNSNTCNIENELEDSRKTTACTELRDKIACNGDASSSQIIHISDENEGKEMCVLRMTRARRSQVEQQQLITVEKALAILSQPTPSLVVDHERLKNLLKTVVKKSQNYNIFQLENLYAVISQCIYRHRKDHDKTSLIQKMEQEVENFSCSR

CLND solubility = format: physicochemical
[3] = target: T3, ATAD2 bromodomain / histone H3.3 (Homo sapiens, UniProt Q6PL18); test: Cellular NanoBRET displacement, ATAD2 bromodomain from histone H3.3; format: cell-based; conditions: NanoBRET (Promega)
T3 sequence (Q6PL18 980-1092 limits assumed): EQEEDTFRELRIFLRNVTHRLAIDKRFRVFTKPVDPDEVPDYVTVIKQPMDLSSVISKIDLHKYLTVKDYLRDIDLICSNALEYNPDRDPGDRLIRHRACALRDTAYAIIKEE

colony formation = test: Colony formation; format: cell-based
[4] = system: internal GSK panel of 40 targets considered as potential liabilities; test: Internal GSK panel of 40 liability targets; conditions: data not shown

Chain of BRD2 BD1 (P25440 74-180 limits assumed): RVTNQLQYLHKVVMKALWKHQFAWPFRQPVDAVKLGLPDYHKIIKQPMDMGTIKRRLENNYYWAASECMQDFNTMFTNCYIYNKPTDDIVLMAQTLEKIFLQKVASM

Interaction with tandem BRD4 bromodomains by ITC (tandem BRD4 bromodomains): no interaction detected
IC50 (ATAD2B bromodomain): 0.02 µM
chromatographic logD (Chrom logD): 3.2
IC50 (BRD2 BD1): ≥ 39.8 µM
solubility (CLND solubility): > 439 µM
Off-target activity against internal GSK panel of 40 targets [4]: inactive
SMILES: CO[C@H]1CNC[C@@H](OCC2CCC(F)(F)CC2)[C@@H]1Nc1ncc(-c2cncc(C)c2)c2cc(C)c(=O)[nH]c12 [Compound 16]
Inhibition of genes involved in cell cycle and division [1]: only seen at high compound concentrations
Displacement of full-length ATAD2 from histone H3.3 [2]: ineffective; also recorded: does not displace full-length ATAD2
Displacement of labelled ATAD2 bromodomain from histone H3.3 [3]: dose-dependent displacement; also recorded: displaces the ATAD2 bromodomain construct
Effects on colony formation (colony formation): only seen at high compound concentrations
